From patent publication US10258640B2, “Method of inhibiting quorum sensing in Pseudomonas aeruginosa” (priority 2015, dated 2019)

Assays:
[1] = tested on: Δvfr strain expressing pentaCys Vfr; assay: Twitching motility in Δvfr strain complemented with pentaCys Vfr; type: cell-based, Pseudomonas aeruginosa
elastase (LasB) = assay: Elastase activity in culture supernatants (commercial elastase activity kit); type: cell-based, Pseudomonas aeruginosa; details: culture supernatants after 7 hours of treatment, various micromolar concentrations
Procedure: LasB levels were measured using a commercial elastase activity kit.

[2] = tested on: rhl quorum-sensing system; assay: PA01 rhlA-gfp reporter assay; type: cell-based, Pseudomonas aeruginosa; details: various micromolar concentrations
[3] = tested on: las quorum-sensing system; assay: PA01 lasB-gfp cell-based fluorescence reporter assay; parameters: species or system Pseudomonas aeruginosa; details: various micromolar concentrations
Description: The inhibition of quorum sensing has been observed by the inventors during a chemical screen set up to look for small-molecule inhibitors of quorum sensing in P. aeruginosa. The assay used is a cell-based fluorescence assay (PA01 lasB-gfp) in which the expression of GFP is controlled by a las-regulated promoter. Inhibition of induction of the las quorum-sensing system by a small molecule is marked by the reduction in GFP signal relative to an untreated sample.

P. aeruginosa proteome = assay: Proteomic analysis of auranofin-treated cultures; type: cell-based, Pseudomonas aeruginosa; details: proteome in presence or absence of auranofin
[4] = tested on: lasA, rhlA, pqsA, exsC, pscL, pilM and pilY genes; assay: Quantitative RT-PCR of RNA levels; type: cell-based, Pseudomonas aeruginosa
P. aeruginosa (PA01) [5] = assay: Swarming motility assay; type: cell-based, Pseudomonas aeruginosa; details: 10 μM
Description: (§1) The top-left and bottom-left petri dishes contain P. aeruginosa (PA01) and PA01-lasIrhlI, respectively, serving as the controls.

[6] = tested on: Δvfr strain expressing pentaCys Vfr; assay: Quorum sensing (LasB production) in Δvfr strain complemented with pentaCys Vfr; type: cell-based, Pseudomonas aeruginosa
[7] = tested on: pqs quorum-sensing system; assay: PA01 pqsA-gfp reporter assay; type: cell-based, Pseudomonas aeruginosa; details: various micromolar concentrations
P. aeruginosa = assay: Growth of P. aeruginosa; type: cell-based, Pseudomonas aeruginosa; details: low micromolar concentrations
P. aeruginosa (PA01) [8] = assay: Swimming motility assay; type: cell-based, Pseudomonas aeruginosa; details: 10 μM
[9] = tested on: mutant Vfr proteins (C38S/C97S or C38S/C183S) binding to plasR; assay: Electrophoretic mobility shift assay (EMSA), mutant Vfr; parameters: species or system Pseudomonas aeruginosa; details: increasing concentrations
Description: (§2) It depicts auranofin inhibiting the binding of wild-type Vfr, but not of the mutant pentaCys variant, to a DNA fragment containing the lasR promoter sequence (plasR) in a dose dependent manner.
(§3) It was hypothesized that auranofin inhibits Vfr, a global response regulator dependent on cyclic-AMP, which is known to control Type III secretion, Type IV pilus assembly and the quorum sensing networks (las and rhl). This was validated using electrophoretic mobility shift assays (EMSA) (see FIG. 6). Based on the EMSA, it can be seen that the binding of wild-type Vfr to the promoter of lasR (plasR), was inhibited by treatment with auranofin. In contrast, the binding of mutant Vfr proteins (C38S/C97S or C38S/C183S) to the same DNA fragment was not inhibited by auranofin.

P. aeruginosa biofilms = assay: Biofilm treatment (GFP-expressing cells, propidium iodide staining, imaging); type: cell-based, Pseudomonas aeruginosa
Procedure: FIG. 8 depicts the effects of auranofin, and its combination either with colistin or tobramycin, on the morphology of biofilms formed using P. aeruginosa cells expressing green fluorescent protein (GFP). DNA from dead cells were labeled with propidium iodide. Auranofin was added either prior to (lower panels) or after formation of the biofilm (24 h before imaging, middle panels). Colistin and tobramycin were added after formation of the biofilm (24 h before imaging, middle panels). […] Scale bar: 5 μm.
Quorum sensing inhibitors are known to affect biofilm morphology and structure. Since auranofin inhibits Vfr, which in turn affects quorum sensing, the effects of auranofin treatment on P. aeruginosa biofilms were investigated.

P. aeruginosa (PA01) [10] = assay: Twitching motility assay; type: cell-based, Pseudomonas aeruginosa; details: 10 μM
Description: as §1

rhamnolipids = assay: Rhamnolipid levels in culture supernatants (MRM mass spectrometry); type: cell-based, Pseudomonas aeruginosa; details: culture supernatants after 7 hours of treatment, various micromolar concentrations
Procedure: Rhamnolipid levels were determined using multiple reaction monitoring (MRM) mass spectrometry.

pyocyanin = assay: Pyocyanin levels in culture supernatants (absorbance at 691 nm); type: cell-based, Pseudomonas aeruginosa; details: culture supernatants after 7 hours of treatment, various micromolar concentrations
Procedure: Pyocyanin levels were determined via absorbance at 691 nm.

[11] = molecular target: wild-type Vfr binding to the promoter of lasR (plasR) (Pseudomonas aeruginosa, UniProt P55222); assay: Electrophoretic mobility shift assay (EMSA), wild-type Vfr; details: increasing concentrations
Chain of wild-type Vfr binding to the promoter of lasR (plasR) (P55222 whole entry): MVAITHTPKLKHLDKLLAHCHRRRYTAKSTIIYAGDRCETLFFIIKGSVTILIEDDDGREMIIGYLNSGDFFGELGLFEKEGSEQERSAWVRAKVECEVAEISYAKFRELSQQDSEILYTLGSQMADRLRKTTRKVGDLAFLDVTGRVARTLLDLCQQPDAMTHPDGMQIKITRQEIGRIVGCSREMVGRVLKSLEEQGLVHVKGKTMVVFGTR
Description: as §2, §3

Row | Molecule | twitching in the strain expressing the pentaCys Vfr [1] | level of virulence factor LasB (elastase activity) (elastase (LasB)) | induction of rhl (PA01 rhlA-gfp) quorum-sensing network, RFU/OD against time [2] | induction of las (PA01 lasB-gfp) quorum-sensing network, RFU/OD against time [3] | cellular levels of proteins controlled by quorum sensing (P. aeruginosa proteome) | levels of proteins involved in Type III secretion and formation of the Type IV pilus (P. aeruginosa proteome) | RNA levels of quorum-sensing regulated, Type III secretion and Type IV pilus assembly genes [4] | swarming motility (P. aeruginosa (PA01) [5]) | QS (LasB production) in the strain expressing the pentaCys Vfr [6] | induction of pqs (PA01 pqsA-gfp) quorum-sensing network, RFU/OD against time [7] | effect on growth of P. aeruginosa (P. aeruginosa) | swimming motility (P. aeruginosa (PA01) [8]) | binding of mutant Vfr proteins to the same DNA fragment (plasR) [9] | biofilm morphology disruption and killing, together with colistin (P. aeruginosa biofilms; auranofin together with colistin) | biofilm morphology disruption and killing, together with tobramycin (P. aeruginosa biofilms; auranofin together with tobramycin) | effect on biofilm morphology and cell death (P. aeruginosa biofilms; auranofin treatment prior to biofilm formation) | twitching motility (P. aeruginosa (PA01) [10]) | level of virulence factor rhamnolipids (rhamnolipids) | level of virulence factor pyocyanin (pyocyanin) | binding of wild-type Vfr to the promoter of lasR (plasR) [11]
1 | CC(=O)OC[C@H]1O[C@@H]([S-])[C@H](OC(C)=O)[C@@H](OC(C)=O)[C@@H]1OC(C)=O.CCP(CC)CC.[Au+] [auranofin] | still able to inhibit | reduced | completely inhibiting | completely inhibiting | down-regulated | down-regulation | generally down-regulated | inhibit | still able to inhibit | completely inhibiting | not affecting growth | does not inhibit | not inhibited | synergistic effects | synergistic effects | substantial cell death and the loss of the characteristic morphology of normal biofilms | inhibit | reduced | reduced | inhibited
2 | OC[C@H]1O[C@H]([S-])[C@H](O)[C@@H](O)[C@@H]1O.[Au+] [aurothioglucose] |  |  |  | completely inhibiting |  |  |  |  |  |  |  |  |  |  |  |  |  |  |  | 
3 | sodium aurothiomalate |  |  |  | completely inhibiting |  |  |  |  |  |  |  |  |  |  |  |  |  |  |  | 
